pIC50: −log10 of the molar value.
Columns and labels:
[1] = tested on: BT-474 human mammary tumor cells; assay: Cell viability of BT-474 cells, MTT; assay type: cell-based; conditions: for Mean LogIC50 (±SEM) / pIC50: BT-474, MTT, 48 h; for Mean LogIC50 (±SEM): log of IC50 in μM; for activity compared with DX101: BT-474, Tables 2a, 2b and 2c (MTT, LDH, Trypan Blue); for pIC50: Homo sapiens
Experimental: (§1) The cell viability is measured by three different methods. For the first method, MTT labeling is performed at 48 hours. This test is based on the use of the tetrazolium salt MTT (3-(4,5-dimethylthiazol-2-yl)-2,5-diphenyltetrazolium bromide). Tetrazolium is reduced by mitochondrial succinate dehydrogenase in active live cells to formazan, a purple colored precipitate. The amount of precipitate formed is proportional to the amount of live cells but also to the metabolic activity of each cell. Thus, a simple determination of the optical density at 550 nm by spectroscopy makes it possible to determine the relative amount of live and metabolically active cells. After 48 hours, the medium is aspirated, and the cells are incubated with MTT (0.5 mg/ml in culture medium) for about 3 hours. The MTT solution is aspirated and the purple crystals are dissolved in dimethyl sulfoxide (DMSO). The OD (optical density) is measured at 550 nm. The percentage of viability is then determined in each well against the CTL and the IC50 (concentration at which 50% of cells remain alive) is determined for each molecule with the Prism software using a nonlinear regression curve (log(inhibitor) vs. Response).
(§2) Cell viability tests were also performed on BT-474 human mammary tumor cells (characterized as triple positive HER2+, ER+, PR+). The BT-474 cells were in a cell culture medium identical to the previous example and seeded in 24-well plates at 70 000 cells per well for cell viability determination using trypan blue, or in 96-well plates at 13 000 cells per well for cell viability determination using the MTT or LDH assay. After 96 hours (h) of culture under normal conditions, i.e. in an incubator at 37° C. with […], BT-474 cells were treated for 48 h with DX101, DX103, DX105, DX111, DX123 and DX127 at 100 nM, 1 μM, 2.5 μM and 10 μM. A control is also performed using the protocol described previously without treatment with DX101, DX103, DX105, DX111, DX123 and DX127.
(§3) After a 10-minute trypsin digestion at 37° C., the cell survival was also quantified by means of a trypan blue test with automatic counting using the Biorad TC20 machine (TC20™ Automated Cell Counter). The trypan blue test is based on the integrity of cell membranes, which is disrupted in the dead cells. Trypan blue stains dead cells blue. The Biorad TC20 cell counter counts the proportion of blue and non-blue cells, and reports the percentage of cells. The percentage of viability is then determined in each well relative to the untreated cells and the IC50 is determined as explained in the preceding example. Also, the percentage viability of the BT-474 cells was determined using the MTT and LDH assay, performed as described in the preceding example.

[2] = Oral pharmacokinetic study in rat, LC/MS assay in plasma (Examples 21-24); assay type: in vivo; conditions: in vivo, po, 50 mg/kg
Experimental: The following study is an LC/MS assay in plasma of the various molecules over 3 days (11 measurement points in the end). The graphs are always presented in comparison with DX101 which is the reference.
Plasma sampling at 0 (without injection), 5, 10, 15, 30 min, 1 h, 4 h, 8 h, 24 h, 48 h, 72 h (11 points)

[3] = tested on: murine 4T1 mammary tumor cells; assay: Cell viability of 4T1 cells, MTT; assay type: cell-based; conditions: for IC50 / pIC50: Mus musculus, 4T1, MTT, 48 h; for IC50: log of IC50 in μM, read-out: Mean LogIC50 (±SEM) (converted); for pIC50: read-out: IC50; for cytotoxic activity compared with DX101: 4T1, Tables 1a, 1b and 1c (MTT, LDH, Green Cytotoxicity Assay)
Experimental: (§4) Cell viability tests were performed on murine 4T1 mammary tumor cells characterized as triple negative (HER2-, ER-, PR-).
(§5) For this experiment, a cell culture medium was prepared. The culture medium consisted of Dulbecco's Modified Eagle Medium (DMEM, sold by Westburg as LO BE12-604F), comprising 4.5 g/L glucose with L-glutamine, to which 10% fetal calf serum (FCS) and 50 U/ml penicillin/streptomycin are added. The 4T1 cells were introduced into this culture medium.
(§6) 96-well plates were seeded with 2000 4T1 cells per well. After 72 hours (h) of culture under normal condition, i.e. in an incubator at 37° C. at […], the 4T1 cells were treated for 48 h with DX101, DX103, DX111, DX123, DX125, DX127 and DX129 at 100 nM, 1 μM, 2.5 μM and 10 μM. A control condition (CTL) is also performed in parallel using the previously described protocol without treatment with the molecules DX101, DX103, DX111, DX123, DX125, DX127 or DX129.
as §1

[4] = tested on: murine 4T1 mammary tumor cells; assay: Cell viability of 4T1 cells, CellTox Green Cytotoxicity Assay; assay type: cell-based; conditions: Mus musculus, 4T1, Green Cytotoxicity Assay, 48 h; for IC50: log of IC50 in μM, read-out: Mean LogIC50 (±SEM) (converted); for pIC50: read-out: IC50
Experimental: as §4, §5, §6
For the third method, the percentage viability is determined using the CellTox Green Cytotoxicity Assay kit (Promega). This assay measures cell death via a change in membrane integrity. […] Consequently, the higher the fluorescence in the wells, the greater the cell death. […] The percentage of cell death is determined using the 100% cell death control (made from untreated cells incubated in the presence of the lysis solution for 30 minutes at 37° C. prior to the addition of Celltox green reagent), and the cell viability in each well is then deduced from this percentage. The IC50 is then determined as explained previously.

[5] = tested on: murine 4T1 mammary tumor cells; assay: Cell viability of 4T1 cells, LDH; assay type: cell-based; conditions: Mus musculus, 4T1, LDH, 48 h; for IC50: log of IC50 in μM, read-out: Mean LogIC50 (±SEM) (converted); for pIC50: read-out: IC50
Experimental: as §4, §5, §6
For the second method, the percentage of viability is determined by assaying the activity of the enzyme LDH (lactate dehydrogenase) in cell supernatants using the non radioactive cytotoxicity assay kit (Promega). LDH is an enzyme released in the supernatant of dead cells. The higher the LDH activity in the supernatant, the greater the cell death. In this enzyme assay, the LDH released converts a violet tetrazolium salt to a red colored formazan, absorbing at 490 nm. The intensity of the red color is proportional to the number of dead cells. After 48 h of treatment, the supernatants are transferred to a new 96-well plate and incubated for 30 minutes in the presence of substrate mix at room temperature. The reaction is stopped with stop solution reagent and the absorbance is determined at 490 nm. The percentage of cell death is determined here using a 100% maximum LDH activity control (made from untreated cells incubated in the presence of lysis solution for 45 minutes at 37° C. just prior to addition of the substrate mix), and the cell viability in each well is then deduced from this percentage. The IC50 is then determined as explained in the preceding paragraph.

[6] = tested on: BT-474 human mammary tumor cells; assay: Cell viability of BT-474 cells, trypan blue; assay type: cell-based; conditions: BT-474, Trypan Blue, 48 h; for Mean LogIC50 (±SEM): log of IC50 in μM; for pIC50: Homo sapiens
Experimental: as §2, §3

[7] = molecular target: T1, Cholesterol Epoxide Hydrolase (ChEH) (Homo sapiens, UniProt Q15125+Q9UBM7); assay: Cholesterol Epoxide Hydrolase (ChEH) activity in MCF-7 cells, [14C]5,6α-EC metabolism by TLC; assay type: cell-based; conditions: 1 μM, 24 h, [14C]5,6α-EC 0.6 μM
T1 construct: endogenous in cells; host or cells: MCF-7
T1 sequence (Q15125 whole entry): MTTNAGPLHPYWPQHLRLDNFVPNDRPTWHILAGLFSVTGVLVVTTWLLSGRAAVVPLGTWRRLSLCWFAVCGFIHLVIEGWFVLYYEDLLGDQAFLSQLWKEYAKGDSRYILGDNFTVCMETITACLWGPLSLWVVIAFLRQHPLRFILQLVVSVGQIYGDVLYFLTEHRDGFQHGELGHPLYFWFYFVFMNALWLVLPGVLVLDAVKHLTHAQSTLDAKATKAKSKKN
T1 sequence (Q9UBM7 whole entry): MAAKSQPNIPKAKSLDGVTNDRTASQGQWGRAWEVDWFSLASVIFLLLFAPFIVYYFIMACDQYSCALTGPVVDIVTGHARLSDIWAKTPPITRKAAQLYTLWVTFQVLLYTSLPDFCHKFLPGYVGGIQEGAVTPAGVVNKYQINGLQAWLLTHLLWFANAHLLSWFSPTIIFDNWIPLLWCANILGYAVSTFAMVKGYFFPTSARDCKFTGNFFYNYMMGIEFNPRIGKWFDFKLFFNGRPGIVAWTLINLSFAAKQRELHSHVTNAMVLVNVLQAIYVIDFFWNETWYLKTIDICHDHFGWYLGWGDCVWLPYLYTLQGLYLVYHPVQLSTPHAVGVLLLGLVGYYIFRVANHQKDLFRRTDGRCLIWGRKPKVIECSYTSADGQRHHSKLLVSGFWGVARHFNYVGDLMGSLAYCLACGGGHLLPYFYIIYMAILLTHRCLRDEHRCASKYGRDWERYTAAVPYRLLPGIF
Text: The compounds 5,6α-epoxycholesterol (5,6α-EC) and 5,6p-epoxycholesterol (5,6p-EC) are oxysterols involved in the anticancer pharmacology of tamoxifen, a widely used antitumor drug. Both are metabolized to cholestane-3β,5α,6β-triol (CT) by the enzyme cholesterol-5,6-epoxide hydrolase (ChEH), and CT is metabolized by the enzyme HSD11B2 (11β-hydroxysteroid dehydrogenase 2) to 6-oxocholestane-3β,5α-diol (OCDO), a tumor-promoting oncosterone.
MCF-7 cells are in a cell culture medium identical to that of Example 5 and are seeded in 6-well plates at 150 000 cells per well with three wells per treatment condition. […] Tamoxifen is used as a positive control for 3α-fluoro-5α-hydroxy-6β-[2-(1H-imidazol-4-yl)ethylamino]cholestane and 5α-hydroxy-6β-[2-(1H-imidazol-4-yl)ethylamino]cholestan-3β-ol (1 μM for all molecules).
After 24 hours of treatment, the media are collected and lipid extracts are prepared from the cell pellets by extraction with 100 μL of chloroform, 400 μL of methanol, and 300 μL of water.
The lipid extracts are analyzed by thin layer chromatography (TLC) using ethyl acetate (EtOAc) as eluent. The analysis is performed with a plate reader and then by autoradiography.

Row | Compound | Mean LogIC50 (±SEM) [1] | activity compared with DX101 [1] | pIC50 [1] | Area under the curve [2] | Max concentration [2] | Time for Cmax [2] | bioavailability / extent of absorption compared with DX101 [2] | speed of absorption compared with DX101 [2] | IC50 [3] | pIC50 [3] | IC50 [4] | pIC50 [4] | IC50 [5] | pIC50 [5] | Mean LogIC50 (±SEM) [6] | pIC50 [6] | maximum concentration compared with DX101 [2] | cytotoxic activity compared with DX101 [3] | inhibition of ChEH activity [7]
1 | CO[C@H]1CC[C@]2(C)[C@H]3CC[C@]4(C)[C@@H]([C@H](C)CCCC(C)C)CC[C@H]4[C@@H]3C[C@@H](NCCc3c[nH]cn3)[C@@]2(O)C1 [DX103, 3β-methoxy-5α-hydroxy-6β-[2-(1H-imidazol-4-yl)ethylamino]cholestane] | 0.85 ± 0.05 | similar | 5.15 | 105351 | 135 nM | 240 min | slightly lower bioavailability | faster absorption | 3.16 µM | 5.50 | 2.63 µM | 5.58 | 4.37 µM | 5.36 | 0.42 ± 0.25 | 5.58 |  |  | 
2 | CCO[C@H]1CC[C@]2(C)[C@H]3CC[C@]4(C)[C@@H]([C@H](C)CCCC(C)C)CC[C@H]4[C@@H]3C[C@@H](NCCc3c[nH]cn3)[C@@]2(O)C1 [DX105, 3β-ethoxy-5α-hydroxy-6β-[2-(1H-imidazol-4-yl)ethylamino]cholestane] | 0.86 ± 0.04 | similar | 5.39 | 145590 | 197 nM | 240 min | equivalent to (or even slightly higher than) | much faster absorption |  |  |  |  |  |  | 0.55 ± 0.14 | 5.45 | much higher maximum concentration |  | 
3 | CCCCCCCCO[C@H]1CC[C@]2(C)[C@H]3CC[C@]4(C)[C@@H]([C@H](C)CCCC(C)C)CC[C@H]4[C@@H]3C[C@@H](NCCc3c[nH]cn3)[C@@]2(O)C1 [DX115, 3β-octanoxy-5α-hydroxy-6β-[2-(1H-imidazol-4-yl)ethylamino]cholestane] |  |  |  |  |  |  |  |  | 37.2 µM | < 5.00 | 25.1 µM | < 5.00 | 17.4 µM | < 5.00 |  |  |  |  | 
4 | CC(C)CCC[C@@H](C)[C@H]1CC[C@H]2[C@@H]3C[C@@H](NCCc4c[nH]cn4)[C@@]4(O)C[C@@H](N=[N+]=[N-])CC[C@]4(C)[C@H]3CC[C@]12C [DX123, 3β-azido-5α-hydroxy-6β-[2-(1H-imidazol-4-yl)ethylamino]cholestane] |  | tends to be superior |  | 6711 | 721 nM | 4 min | twofold higher bioavailability |  | 5.89 µM | 5.23 | 2.09 µM | < 5.00 | 1.45 µM | 5.84 |  |  |  | tendency to be higher | 
5 | CC(C)CCC[C@@H](C)[C@H]1CC[C@H]2[C@@H]3C[C@@H](NCCc4c[nH]cn4)[C@@]4(O)C[C@@H](N)CC[C@]4(C)[C@H]3CC[C@]12C [DX125, 3β-amino-5α-hydroxy-6β-[2-(1H-imidazol-4-yl)ethylamino]cholestane] |  |  |  |  |  |  |  |  | 145 µM | < 5.00 | 22.4 µM | < 5.00 | 36.3 µM | < 5.00 |  |  |  | lower | 
6 | CC(=O)N[C@H]1CC[C@]2(C)[C@H]3CC[C@]4(C)[C@@H]([C@H](C)CCCC(C)C)CC[C@H]4[C@@H]3C[C@@H](NCCc3c[nH]cn3)[C@@]2(O)C1 [DX127, 3β-acetamido-5α-hydroxy-6β-[2-(1H-imidazol-4-yl)ethylamino]cholestane] |  | similar |  |  |  |  |  |  | 11.7 µM | 4.93 | 11 µM | 4.96 | 7.08 µM | 5.15 |  |  |  | lower | 
7 | CC(C)CCC[C@@H](C)[C@H]1CC[C@H]2[C@@H]3C[C@@H](NCCc4c[nH]cn4)[C@@]4(O)C[C@@H](S(C)(=O)=O)CC[C@]4(C)[C@H]3CC[C@]12C [DX129, 3β-methylsulfonyl-5α-hydroxy-6β-[2-(1H-imidazol-4-yl)ethylamino]cholestane] |  |  |  |  |  |  |  |  | 15.1 µM | 4.82 | 16.2 µM | 4.79 | 3.89 µM | 5.41 |  |  |  | lower | 
8 | CC/C(=C(\c1ccccc1)c1ccc(OCCN(C)C)cc1)c1ccccc1 [tamoxifen, reference compound] |  |  |  |  |  |  |  |  |  |  |  |  |  |  |  |  |  |  | total inhibition
